Among the test systems are A498 renal; CAKI-1 renal; HCT-15 colon; K-562 leukemia; MDA-MB-435; MOLT-4 leukemia; SF-268 CNS; SK-MEL-5 melanoma; T-47D breast; U251 CNS.
Assay in all cases: NCI-60 cell line screen, 48 h

Structures are written as SMILES.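 Results reflect a 48-hour exposure of cells in 96-well plates to compound at five concentrations. TGI: total growth inhibition.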

In the case of `CC(C(O)c1ccccc1)[N+](=O)[O-]` (stereo not drawn), the TGI in the assay on A498 renal was 36.3 µM; in the assay on CAKI-1 renal it was 30.6 µM; in the assay on HCT-15 colon, 43.4 µM; with K-562 leukemia, 59.1 µM; in the assay with MDA-MB-435 it was 38.2 µM; with MOLT-4 leukemia, 4.88 µM. Besides, the TGI with SF-268 CNS was found to be 95.5 µM; with SK-MEL-5 melanoma, 39.1 µM; with T-47D breast, 59.5 µM; with U251 CNS, 38.4 µM.
`COc1ccc(CCNC(=S)/N=C\C2=C(O)c3ccccc3C2=O)cc1OC`: the TGI in the assay with A498 renal, in the assay with CAKI-1 renal, with HCT-15 colon, in the assay with K-562 leukemia, with MDA-MB-435 and with MOLT-4 leukemia was greater than 100 µM in each case. The TGI in the assay with SF-268 CNS, in the assay on SK-MEL-5 melanoma, in the assay on T-47D breast and with U251 CNS was greater than 100 µM in each case.
With `CC1(C)OCC(C2OC(=O)C(OCc3ccccc3)=C2OCc2ccccc2)O1` (stereo not drawn), the TGI was 90.5 µM in the assay on A498 renal; greater than 100 µM with CAKI-1 renal; greater than 100 µM in the assay with HCT-15 colon; greater than 100 µM in the assay with K-562 leukemia; 79.4 µM in the assay with MDA-MB-435; 73.1 µM with MOLT-4 leukemia. The TGI is greater than 100 µM in the assay on SF-268 CNS, 32.3 µM in the assay with SK-MEL-5 melanoma, greater than 100 µM in the assay with T-47D breast and greater than 100 µM in the assay on U251 CNS.
For `CCN(CC)CCNC(=O)c1cc2cc(NC(=O)c3cc4cc(NC(=O)c5cc6cc([N+](=O)[O-])ccc6[nH]5)ccc4[nH]3)ccc2[nH]1`, the TGI with A498 renal, in the assay with CAKI-1 renal, with HCT-15 colon, with K-562 leukemia, in the assay with MDA-MB-435 and with MOLT-4 leukemia was greater than 100 µM in each case. Further, the TGI in the assay on SF-268 CNS, with SK-MEL-5 melanoma, in the assay with T-47D breast and with U251 CNS was greater than 100 µM in each case.
For the compound `CS(=O)(=O)OC1CCN(C2(c3cccc(O)c3)CCCCC2)CC1`, the TGI with A498 renal was greater than 100 µM; in the assay with CAKI-1 renal, greater than 100 µM; with HCT-15 colon it was greater than 100 µM; in the assay with K-562 leukemia it was greater than 100 µM; in the assay on MDA-MB-435 it was greater than 100 µM; with MOLT-4 leukemia, 94.1 µM. Besides, the TGI in the assay on SF-268 CNS, in the assay on SK-MEL-5 melanoma, with T-47D breast and in the assay on U251 CNS was greater than 100 µM each time.
For `CCC(C)N1CN(c2ccccc2)C2(CCN(CCCC(=O)c3ccc(F)cc3)CC2)C1=O` (stereo not drawn), the TGI was 16.8 µM in the assay on A498 renal; 26.8 µM with CAKI-1 renal; 17.9 µM in the assay with HCT-15 colon; greater than 100 µM with K-562 leukemia; 27.5 µM with MDA-MB-435; 23.2 µM in the assay with MOLT-4 leukemia. The TGI with SF-268 CNS amounted to 29 µM; in the assay with SK-MEL-5 melanoma, 9.61 µM; in the assay with T-47D breast, 15.9 µM; in the assay on U251 CNS, 16.9 µM.
Regarding `CC(=O)O[C@H]1CC[C@H]2[C@@H]3CC[C@H]4Nc5c(cnn5S(C)(=O)=O)C[C@]4(C)[C@H]3CC[C@]12C`, the TGI in the assay on A498 renal, with CAKI-1 renal, in the assay on HCT-15 colon, with K-562 leukemia, in the assay with MDA-MB-435 and in the assay on MOLT-4 leukemia was greater than 100 µM in each case. In addition, the TGI with SK-MEL-5 melanoma, with T-47D breast and with U251 CNS was greater than 100 µM throughout.
In the case of `CCCCCCCCC[C@@H]1C[C@@H]2CCC3C(C(=O)OCCCCNC(=O)OCc4ccccc4)=C(C)NC(=N1)N32` (stereo partly drawn), the TGI with A498 renal was 18.9 µM; with CAKI-1 renal, 14.9 µM; in the assay with HCT-15 colon, 8.06 µM; in the assay with K-562 leukemia, 3.83 µM; with MDA-MB-435, 9.82 µM; with MOLT-4 leukemia, 6.41 µM. In addition, the TGI in the assay on SF-268 CNS turned out to be 6.66 µM; in the assay with SK-MEL-5 melanoma, 2.93 µM; in the assay on T-47D breast, 10.6 µM; with U251 CNS, 10.3 µM.
With `O=S(=O)(Nc1nc(-c2cc(O)c(O)c(O)c2)cs1)c1ccc(Cl)cc1Cl`, the TGI with A498 renal is greater than 100 µM; in the assay on CAKI-1 renal, 35.5 µM; in the assay with HCT-15 colon it was 33 µM; in the assay on K-562 leukemia, 48 µM; with MDA-MB-435 it was 56.9 µM; in the assay on MOLT-4 leukemia, 52.7 µM. Moreover, the TGI in the assay on SF-268 CNS worked out at 46.2 µM; in the assay with SK-MEL-5 melanoma, 34.2 µM; with T-47D breast, 41.1 µM; with U251 CNS, 37.3 µM.
As for `CNC(=O)C(NC(=O)[C@H](CC(C)C)NC(=O)[C@@H](S)CCN1C(=O)N(C)C(C)(C)C1=O)C(C)(C)C` (stereo partly drawn), the TGI with A498 renal, in the assay with CAKI-1 renal, with HCT-15 colon, in the assay with K-562 leukemia, with MDA-MB-435 and in the assay with MOLT-4 leukemia was greater than 100 µM in each case. The TGI in the assay on SF-268 CNS, in the assay on SK-MEL-5 melanoma and in the assay with T-47D breast was greater than 100 µM each time.

Source of the values: PubChem BioAssay (NCI).
